The target in one assay is D2 dopamine receptors (Rattus norvegicus, UniProt P61169). Kind of assay: inhibition of tritiated (S)-sulpiride binding to D2 dopamine receptors in vitro. Conditions: rat striatum, tritiated (S)-sulpiride 1 nM, 4° C., 40 min. Also noted: species or system rat (male Charles River CD, striatal tissue).
The target in another assay is T1, 5-HT1A receptors (Rattus norvegicus, UniProt P19327).
T1 sequence (P19327 1-422): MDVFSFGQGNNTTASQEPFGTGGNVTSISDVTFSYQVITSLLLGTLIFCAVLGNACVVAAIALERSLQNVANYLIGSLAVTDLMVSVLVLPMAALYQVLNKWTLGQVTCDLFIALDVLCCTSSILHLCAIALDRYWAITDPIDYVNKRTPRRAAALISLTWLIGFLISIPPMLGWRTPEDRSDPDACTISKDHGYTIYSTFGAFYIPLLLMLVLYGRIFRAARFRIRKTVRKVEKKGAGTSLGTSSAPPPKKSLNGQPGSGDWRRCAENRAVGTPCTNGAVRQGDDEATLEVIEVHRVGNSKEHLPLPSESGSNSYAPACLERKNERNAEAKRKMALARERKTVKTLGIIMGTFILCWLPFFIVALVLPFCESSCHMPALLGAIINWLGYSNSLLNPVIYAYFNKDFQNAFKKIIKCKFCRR
Kind of assay: inhibition of [3H]8-OH-DPAT binding to 5-HT1A receptors in vitro. To be noted: rat hippocampus, [3H]8-OH-DPAT 2 nM, 25° C., 30 min. More on the design: species or system rat (male Sprague-Dawley, hippocampal tissue).

Another assay has as its target T2, α2D-adrenoceptors (Rattus norvegicus, UniProt P22909).
T2 sequence (P22909 1-465): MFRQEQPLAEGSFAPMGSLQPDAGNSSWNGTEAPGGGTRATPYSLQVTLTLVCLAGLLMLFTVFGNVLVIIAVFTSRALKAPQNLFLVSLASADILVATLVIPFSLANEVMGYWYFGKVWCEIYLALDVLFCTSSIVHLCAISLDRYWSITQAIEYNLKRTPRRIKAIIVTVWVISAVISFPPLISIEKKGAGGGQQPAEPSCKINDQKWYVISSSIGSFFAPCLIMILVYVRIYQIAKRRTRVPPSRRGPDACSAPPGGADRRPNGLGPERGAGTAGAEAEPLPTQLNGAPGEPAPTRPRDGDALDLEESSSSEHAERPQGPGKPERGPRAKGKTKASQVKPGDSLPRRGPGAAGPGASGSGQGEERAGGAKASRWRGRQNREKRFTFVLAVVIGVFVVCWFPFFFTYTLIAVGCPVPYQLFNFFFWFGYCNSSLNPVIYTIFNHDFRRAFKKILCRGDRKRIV
Kind of assay: inhibition of tritiated idazoxan binding to α2D-adrenoceptors in vitro. Also noted: species or system rat (male Charles River CD, frontal cortical tissue). To be noted: rat frontal cortex; for Ki: [3H]idazoxan 1 nM, 0° C., 75 min; for inhibition at 1 µM: 10^-6 M, [3H]idazoxan, read-out: % displacement at 10^-6 M, α2D.

Another assay has as its target T3, α2A-adrenoceptors (Homo sapiens, UniProt P08913).
T3 construct: Human cerebral cortex obtained at post-mortem; from tissue; host or cells: human cerebral cortex, post-mortem
T3 sequence (P08913 1-465): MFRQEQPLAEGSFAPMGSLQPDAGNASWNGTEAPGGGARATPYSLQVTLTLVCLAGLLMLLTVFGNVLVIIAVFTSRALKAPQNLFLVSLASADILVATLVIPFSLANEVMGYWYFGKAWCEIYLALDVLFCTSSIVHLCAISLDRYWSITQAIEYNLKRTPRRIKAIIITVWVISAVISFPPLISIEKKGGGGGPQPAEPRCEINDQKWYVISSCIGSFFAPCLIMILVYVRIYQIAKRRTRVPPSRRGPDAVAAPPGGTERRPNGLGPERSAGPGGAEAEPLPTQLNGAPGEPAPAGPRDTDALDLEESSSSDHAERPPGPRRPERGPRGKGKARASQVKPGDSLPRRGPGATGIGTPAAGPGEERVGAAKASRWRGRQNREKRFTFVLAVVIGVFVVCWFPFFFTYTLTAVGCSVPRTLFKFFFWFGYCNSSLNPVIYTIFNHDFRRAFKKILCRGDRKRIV
Kind of assay: inhibition of tritiated RX 821002 binding to α2A-adrenoceptors in vitro. Also noted: species or system human (cerebral cortex post-mortem). Conditions: human cerebral cortex; for inhibition at 1 µM: 10^-6 M, [3H]RX 821002, read-out: % displacement at 10^-6 M, α2A; for Ki: [3H]RX 821002 0.2 nM, 0° C., 75 min. As to the method: Human cerebral cortex obtained at post-mortem was homogenised in ice-cold 0.25M sucrose (1:30 w/v) and centrifuged at 1,000 g at 4° C. for 12 minutes. The supernatant was stored on ice and the pellet was rehomogenised in 0.25M sucrose (1:15 w/v) and centrifuged at 850 g at 4° C. for 12 minutes. Combined supernatants were diluted with 5 mM Tris-HCl (pH 7.5) containing 5 mM ethylenediamine tetraacetic acid (EDTA), readjusted to pH 7.5 (at 25° C.) with 1M sodium hydroxide to 1:80 w/v, and centrifuged at 11,000 g at 4° C. for 10 minutes. The resulting pellet was resuspended in 50 mM Tris-HCl (pH 7.5) containing 5.68 mM L-ascorbic acid and 0.5 mM EDTA, readjusted to pH 7.5 (at 25° C.) with 1M sodium hydroxide to 1:80 w/v, and centrifuged at 11,000 g for 10 minutes. The pellet was stored at -80° C. On the day of the assay the pellet was thawed, resuspended in 50 mM Tris-HCl (pH 7.5) containing 5.68 mM L-ascorbic acid and 5 mM EDTA to 1:80 w/v and centrifuged at 11,000 g for 10 minutes. The final pellet was resuspended in 50 mM Tris-HCl (pH 7.5) containing 5.68 mM L-ascorbic acid and 5 mM EDTA (equivalent to 25 mg wet weight of tissue/ml).
Aliquots (400 μl; equivalent to 10 mg wet weight of tissue/tube) of this suspension were added to tubes containing the ligand (50 μl; 0.2 nM) and distilled water (50 μl; total binding) or phentolamine (50 μl; 50 μM; non-specific binding) or test compound (50 μl; at a single concentration of 10^-6 M or at 10 concentrations ranging from 10^-11 -10^-3 M). The ligand was tritiated RX 821002 (2-(2-methoxy-1,4-[6,7(n)-^3 H]benzodioxan-2-yl)-2-imidazoline) and the mixture was incubated at 0° C. for 75 minutes before the incubation was terminated by rapid filtration.
The filters were washed with ice-cold Tris-HCl buffer and dried. The filters were punched out into vials, scintillation fluid added and radioactivity determined by liquid scintillation counting. The percentage displacement of specific binding of the tritiated ligand was calculated for the single concentration (10^-6 M) of test compound. Displacement curves were then produced for those compounds which displaced ≥50% of specific binding of the tritiated ligand at 10^-6 M using a range of concentrations of the compound. The concentration which gave 50% inhibition of specific binding (IC50) was obtained from the curve. The inhibition coefficient Ki was then calculated using the formula [formula] in which [ligand] is the concentration of the tritiated ligand used and KD is the equilibrium dissociation constant for the ligand.

The target in the next assay is α1-adrenoceptors. Kind of assay: inhibition of 7-methoxy-[3H]prazosin binding to α1-adrenoceptors in vitro. Also noted: species or system rat (male Charles River CD, whole cortical tissue). Conditions: rat whole cortex, 7-methoxy-[3H]prazosin 0.1 nM, 30° C., 30 min. A digest of the protocol:
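Male CD rat cortical membranes in 50 mM Tris-HCl pH 7.6 were incubated 30 min at 30 °C with 7-methoxy-[3H]prazosin (0.1 nM as added), with 5 μM phentolamine (as added) defining non-specific binding, then filtered and counted. Compounds were tested at 10^-6 M for % displacement or at 10^-11–10^-3 M for IC50, and Ki was derived from IC50, ligand concentration and KD.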

The record followed here is US6114334A, “Piperazine derivatives as therapeutic agents” (Knoll Aktiengesellschaft, priority 1995, dated 2000).

Sequence of D2 dopamine receptors (P61169 whole entry): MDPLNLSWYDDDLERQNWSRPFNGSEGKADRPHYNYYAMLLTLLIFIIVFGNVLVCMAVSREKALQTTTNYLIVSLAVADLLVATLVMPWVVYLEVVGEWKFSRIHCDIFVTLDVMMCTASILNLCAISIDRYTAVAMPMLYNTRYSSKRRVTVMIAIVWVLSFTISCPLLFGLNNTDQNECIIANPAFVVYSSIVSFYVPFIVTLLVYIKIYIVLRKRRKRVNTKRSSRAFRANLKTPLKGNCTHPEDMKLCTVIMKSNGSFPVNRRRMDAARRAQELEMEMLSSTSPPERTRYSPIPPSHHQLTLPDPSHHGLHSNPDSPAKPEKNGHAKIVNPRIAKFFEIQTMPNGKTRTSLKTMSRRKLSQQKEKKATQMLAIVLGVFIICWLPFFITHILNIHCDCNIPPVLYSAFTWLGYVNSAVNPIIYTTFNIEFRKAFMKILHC

As a reminder, the Ki is the equilibrium dissociation constant of an inhibitor or competing ligand from its target. Regarding `CC(C)Oc1ccccc1N1CCN(Cc2c(N)n(C)n(-c3ccccc3)c2=O)CC1` [Example 8, 3-Amino-4-[4-(2-isopropoxyphenyl)piperazin-1-ylmethyl]-2-methyl-1-phenyl-3-pyrazolin-5-one], the Ki on D2 dopamine receptors worked out at 22 nM; at 5-HT1A receptors it was 106 nM; at α2D-adrenoceptors, 21 nM; at α1-adrenoceptors, 12 nM. Moreover, the inhibition at 1 µM at α2A-adrenoceptors turned out to be 100%.

Take `Nc1nn(-c2ccccc2)c(N)c1CN1CCN(c2cccc3c2OCCO3)CC1` [Example 11, 3,5-diamino-4-[4-(1,4-benzodioxan-5-yl)piperazin-1-ylmethyl]-1-phenylpyrazole]: the Ki is 309 nM on D2 dopamine receptors, 16 nM on 5-HT1A receptors, 60 nM on α2D-adrenoceptors and > 500 nM at α1-adrenoceptors. In addition, at α2A-adrenoceptors, the inhibition at 1 µM turned out to be 85%.

Take `Cn1c(N)c(CN2CCN(c3cccc4ccoc34)CC2)c(=O)n1-c1ccccc1` [Example 7, 3-Amino-4-[4-(7-benzo[b]furanyl)piperazin-1-ylmethyl]-2-methyl-1-phenyl-3-pyrazolin-5-one]: the inhibition constant (Ki) at D2 dopamine receptors turned out to be 177 nM; at 5-HT1A receptors it was 24 nM; at α2D-adrenoceptors, 165 nM; at α1-adrenoceptors, 19 nM. Also, the inhibition at 1 µM on α2A-adrenoceptors was 91%.

Turning to `Nc1c(CN2CCN(c3cccc4ccoc34)CC2)c(C2CC2)nn1-c1ccccc1` [Example 27, 5-Amino-4-[4-(7-benzo[b]furanyl)piperazin-1-ylmethyl]-3-cyclopropyl-1-phenylpyrazole], the Ki at D2 dopamine receptors is > 500 nM; on 5-HT1A receptors, 16 nM; at α2D-adrenoceptors it was 4.9 nM; on α1-adrenoceptors, 7.1 nM. On α2A-adrenoceptors, the inhibition at 1 µM worked out at 99%.

As for `CC1(CN2CCN(c3cccc4c3OCCO4)CC2)N=C(c2cccnc2)NC1=O` (stereo not drawn) [Example 40, 4-[4-(1,4-Benzodioxan-5-yl)piperazin-1-ylmethyl]-4-methyl-2-(3-pyridyl)-2-imidazolin-5-one], the Ki on D2 dopamine receptors was 315 nM; at 5-HT1A receptors, 19 nM; on α2D-adrenoceptors it was 220 nM; at α1-adrenoceptors, > 500 nM. Further, the inhibition at 1 µM on α2A-adrenoceptors is 69%.

Regarding `Cn1c(N)c(CN2CCN(c3cccc4c3OCCO4)CC2)c(=O)n1-c1ccccc1` [Example 2, 3-amino-4-[4-(1,4-benzodioxan-5-yl)piperazin-1-ylmethyl]-2-methyl-1-phenyl-3-pyrazolin-5-one], the inhibition constant Ki at D2 dopamine receptors stood at 196 nM; at 5-HT1A receptors, 26 nM; at α2D-adrenoceptors, 307 nM; at α2A-adrenoceptors, 29 nM; at α1-adrenoceptors, 401 nM.

As to `Cn1nc(C2CCCC2)c(CN2CCN(c3cccc4c3OCCO4)CC2)c1N` [Example 31, 5-Amino-4-[4-(1,4-benzodioxan-5-yl)piperazin-1-ylmethyl]-3-cyclopentyl-1-methylpyrazole], the Ki on D2 dopamine receptors was > 500 nM; at 5-HT1A receptors, 21 nM; on α1-adrenoceptors, 45 nM. Also, the values for the inhibition at 1 µM at α2D-adrenoceptors and on α2A-adrenoceptors were 82% and 95%, respectively.

For `C=CCN1C(=O)C(C)(CN2CCN(c3cccc4c3OCCO4)CC2)N=C1c1cccnc1` (stereo not drawn) [Example 44, 1-allyl-4-[4-(1,4-benzodioxan-5-yl)piperazin-1-ylmethyl]-4-methyl-2-(3-pyridyl)-2-imidazolin-5-one], the Ki on D2 dopamine receptors was 345 nM; on 5-HT1A receptors, 15 nM; at α1-adrenoceptors, > 500 nM. For the same molecule, the results for the inhibition at 1 µM at α2D-adrenoceptors and at α2A-adrenoceptors were 54% and 76%, respectively.

For `CC(C)(C)n1nc(C2CC2)c(CN2CCN(c3cccc4c3OCCO4)CC2)c1N` [Example 24, 5-Amino-4-[4-(1,4-benzodioxan-5-yl)piperazin-1-ylmethyl]-1-tert-butyl-3-cyclopropylpyrazole], the Ki on D2 dopamine receptors worked out at 422 nM; at 5-HT1A receptors, 21 nM; on α2D-adrenoceptors it was 13 nM; on α2A-adrenoceptors, 39 nM; at α1-adrenoceptors, 177 nM.
